{
  "source": "patent US20170312334A1",
  "about": "“METHODS AND COMPOSITIONS FOR TREATING INFLAMMATORY DISORDERS” (ROGNE BIOSCIENCE INC., priority 2014, published 2017)",
  "key": {"[1]": {"tested_on": "imiquimod-induced dermal inflammation", "experiment": "Imiquimod-induced psoriasis-like skin inflammation model in mice", "settings": "topically applied, in vivo, mice (FIG. 15)", "protocol": "Psoriasis is induced by imiquimod applied to the back and ears of the test animals. The initial signs of the disease are observed within 5-6 days as redness and the appearance of plaque type psoriasis, and the disease progresses onto the entire back of the animal.\nThe study is carried out on female BALC/c mice, 9-10 weeks old at study initiation. […] The animals are divided into group 1 (naïve), group 2 (vehicle+IMQ), group 3 (C15 peptide test agent+IMQ) and group 4 (C15 peptide test agent+IMQ).\nThe animals are examined for signs of psoriasis on study day 1. These scores served as a baseline for the psoriasis clinical score parameter. Starting from IMQ cream application on day 1, psoriasis responses are examined from day 5 until termination of the study.\nPsoriasis reactions (erythema and plaques) are scored and recorded. For plaques, a scale of 0-7 is used with 0 being normal and 7 being no fur with small red dots covering 50%-100% of the back. For erythema, a scale of 0-4 is used with 0 being normal and 4 being very marked. The clinical score is determined by summing the score of each section. The final psoriasis score is the sum of the erythema score and the plaques score.\nRight ear thickness is measured before psoriasis induction on study day 1 (baseline). […] Right ear thickness is then measured on study days 5, 8 and 10 (study termination). […]"}, "NF-κB [2]": {"tested_on": "NF-κB", "experiment": "Modulation of NF-κB activity compared with steroid (FIG. 17)", "format": "cell-based", "settings": "FIG. 17A/17B"}, "[3]": {"tested_on": "NF-κB-regulated cytokines", "experiment": "Secretion of NF-κB-regulated cytokines by mouse macrophages (FIG. 18B)", "format": "cell-based"}, "RANTES [4]": {"tested_on": "RANTES", "experiment": "Newly synthesized RANTES in human macrophages (FIG. 18C)", "format": "cell-based"}, "TNFα": {"tested_on": "TNFα", "experiment": "Inhibition of LPS/IFNγ-induced cytokine expression (TNFα)", "format": "cell-based"}, "RANTES [5]": {"tested_on": "RANTES", "experiment": "Inhibition of LPS/IFNγ-induced cytokine expression (RANTES)", "format": "cell-based"}, "NF-κB [6]": {"tested_on": "NF-κB", "experiment": "NF-κB activation assay: camptothecin induced NF-κB nuclear binding", "format": "cell-based", "settings": "camptothecin 10 μM to 10 nM", "protocol": "Treatment of the nuclear extract with the p65 antibody results in a significant decrease in NF-κB/DNA binding. As a negative control, cells are left inactivated and nuclear extracts are treated with the NF-κB consensus sequence, illustrating only a slight background level of NT-κB.\nInhibition of camptothecin mediated activation of NF-κB by the agents disclosed herein is as follows: Induction of NF-κB activation can proceed via a wide range of signaling pathways (Delhase et al., Science 284: 309-313 (1999); Karin, Oncogene 18: 6867-6874 (1999)). Inhibition of NF-κB activation can proceed via the inhibition of many different pathways (Epinat and Gilmore, Oncogene 18: 6896-6909 (1999)). […]\nHuman Jurkat leukemia T-cells (clone E6-1; Amer. Type Culture Collection, Rockville, Md.) are grown in RPMI-1640 Media (Gibco-BRL, Rockville, Md.) supplemented with 10% fetal bovine serum, penicillin (614 ng/mL), streptomycin (10 μg/mL) and HEPES buffer, pH 7.2 at 37° C., 5% CO2. […] The protein concentration of the extracts is determined according to the Method of Bradford (1976) with BioRad reagents. […] After electrophoresis the gel is analyzed using a phosphorimager (Biorad FX plus) for detection of the NF-κB-DNA binding."}},
  "data": [
    {"compound": "AGEDPHSFYFPGQFA (listed as Homo sapiens) [human C15 peptide]", "values": [
      {"measurement": "imiquimod-induced dermal inflammation", "setting": "[1]", "result": "reduces imiquimod-induced dermal inflammation in vivo in a dose dependent manner"},
      {"measurement": "NF-κB activity modulation relative to steroid", "setting": "NF-κB [2]", "result": "modulates NF-κB activity more potently than steroid"},
      {"measurement": "secretion of NF-κB-regulated cytokines", "setting": "[3]", "result": "reduced"},
      {"measurement": "reduction of newly synthesized RANTES", "setting": "RANTES [4]; human macrophages (FIG. 18C)", "result": "> 90", "unit": "%"},
      {"measurement": "potency relative to steroid (Dex)", "setting": "RANTES [4]; human macrophages, RANTES (FIG. 18C)", "result": "10^6 time"}
    ]},
    {"compound": "NNNNNNNNNN", "values": [
      {"measurement": "Percent Inhibition of LPS/IFNγ-induced Cytokine Expression", "setting": "TNFα", "result": 1, "unit": "%"},
      {"measurement": "Percent Inhibition of LPS/IFNγ-induced Cytokine Expression", "setting": "RANTES [5]", "result": 0, "unit": "%"}
    ]},
    {"compound": "CC[C@@]1(O)C(=O)OCc2c1cc1n(c2=O)Cc2cc3ccccc3nc2-1", "note": "[camptothecin]", "values": [
      {"measurement": "NF-κB/DNA binding due to NF-κB activation", "setting": "NF-κB [6]", "result": "significant amount of NF-κB/DNA binding"}
    ]}
  ]
}
